Results on six compounds are retold here after article PMC8560939 (Scientific Reports, 2021).

Where two headings read alike, the source gives them in different places.

Data set [1] addresses T1, LDHB (Homo sapiens, UniProt P07195).
T1 construct: purchased R&D Systems
In words: LDHB enzyme assay by RapidFire-MS (NADH to NAD+ conversion). In kind it is biochemical. The conditions noted are these: RF-MS. How it is done: (§1) To compare the selectivity potency of the 22 selected compounds, we evaluated the compounds against human LDHB and LDHA by RF-MS. […] The Km value was also determined for the LDHA reaction. All EC50 values are listed in Supplementary Table 1.
We screened for compounds (final concentration: 10 μM) within pooled libraries consisting of more than 345,000 compounds. Each compound in DMSO (1 mM) was dispensed into 384-well V base plates (100 nL/well) using an Echo 555 acoustic dispenser (Labcyte, Sunnyvale, CA, USA). LDHB (5 μL) was diluted in assay buffer (20 mM Tris [pH 7.5], containing 2 mM DTT, 0.005% Triton X100, and 0.005% BSA) and dispensed into assay plates (final concentration: 0.25 nM). […] After incubation for 30 min at room temperature, acetonitrile (10 μL) and water (50 μL) were added to quench the reaction. All additions were performed using a Multidrop Combi (Thermo Fisher Scientific, Waltham, MA, USA). Assay plates were sealed and centrifuged (2700× g for 10 min) before storage at − 20 °C.
(§2) For RF-MS (Agilent, Wakefield, MA, USA), the enzyme reaction solution (5 μL) was aspirated directly from the quenched assay plates and loaded onto a C8 solid-phase extraction cartridge (Agilent) with a mobile phase of water containing DHAA (5 mM) for 2500 ms at a flow rate of 1.25 mL/min. The analytes were then co-eluted into the mass spectrometer using water:acetonitrile:acetone (2:1:1) containing ammonium acetate (5 mM) for 5000 ms at a flow rate of 1.0 ml/min. […] The extracted ion chromatograms for each transition were integrated and processed using RapidFire Integrator (Agilent). The data for each well were normalised using the monitoring product conversion with the ratio of AUCproduct / (AUCproduct + AUCsubstrate).
To determine the compound activities, percent inhibition data normalised to 0% (DMSO only) and 100% inhibition (no-enzyme control) wells were calculated. Data analysis was performed using the Tibco Spotfire (Boston, MA, USA) packages.
(§3) The reaction product was measured by RF-MS. To estimate the Km and Vmax values, the initial rates were fit to the Michaelis–Menten equation. EC50 and Hill slope calculation and curve fitting using four-parameter fits were performed using GraphPad Prism v6.07 (GraphPad Software, San Diego, CA, USA) or XLfit (IDBS, Guildford, UK) with nonlinear regression analysis, wherein the EC50 value equaled the concentration at which the inflection point of the fitted model was reached. The quality and robustness of the screening campaign process were determined by analysing the Z’ factor.

Data set [2] addresses T1, LDHB. The data set can be described thus: Time-dependent inhibition (pre-incubation of AXKO-0046 and LDHB). In kind it is biochemical. The conditions noted are these: pre-incubation with LDHB up to 120 min. How it is done:
We then assessed whether there was any time dependence to the onset of inhibition by varying the time for which AXKO-0046 and LDHB were pre-incubated before initiating the enzymatic reaction.
Supplementary Figure 4. Time-dependent inhibition of LDHB activity by AXKO-0046. Time-dependent inhibition was measured by pre-incubating AXKO-0046 and LDHB for 0, 30, 60, or 120 min, as indicated, before initiating the LDHB reaction. Data are shown as mean (n = 2).

Data set [3] concerns the target T1, LDHB. The data set can be described thus: Substrate-competition assay (varying NADH or pyruvate). In kind it is biochemical. The conditions noted are these: for Vmax (NADH): NADH titration; for Vmax (Pyruvate): pyruvate titration. As for the experimental part: To elucidate the underlying inhibitory mechanism, substrate competition assays were performed. LDHB inhibitory activity for AXKO-0046 was assessed at different concentrations of the substrate.
Moreover, the Km and Vmax values for LDHB were determined in the presence AXKO-0046. As the AXKO-0046 concentration increased in the reaction, both Vmax and Km decreased proportionally (Supplementary Fig. 3 and Table 1). The Lineweaver–Burke plot lines were nearly parallel (Fig. 3c,d), indicating uncompetitive inhibition with a strong preference for inhibiting the enzyme–substrate complex.
A solution of AXKO-0046 (0.00001, 0.0001, 0.001, 0.01, 0.1, 1, 10, and 100 μM) with 0.25 nM LDHB was then added. The enzymatic reactions were performed at room temperature for 15 min in triplicate. At each inhibitor concentration, the dependence of the initial reaction velocity on the substrate concentration was fitted to a nonlinear Michaelis–Menten model to obtain the Km and Vmax values using GraphPad Prism. Lineweaver–Burk plots were generated by superimposing the data of 1/[velocity] and 1/[substrate] and the line corresponding to the Michaelis–Menten nonlinear fit.

A short description of the next data set: Cellular activity. Format: cell-based.
In another data set the target is T2, human LDHA (Homo sapiens, UniProt P00338).
T2 construct: purchased R&D Systems
The data set can be described thus: LDHA enzyme assay by RapidFire-MS. In kind it is biochemical. How it is done:
as §1
These concentrations were chosen based on fitting to the Michaelis–Menten model with the Km values (Supplementary Figure S2).
as §2
To determine the compound activities, percent inhibition data normalised to 0% (DMSO only) and 100% inhibition (no-enzyme control) wells were calculated. […]
The reaction product was measured by RF-MS. […] The quality and robustness of the screening campaign process were determined by analysing the Z’ factor.

In data set [4] the test system is NC(=O)C1=CN([C@@H]2O[C@H](COP(=O)(O)OP(=O)(O)OC[C@H]3O[C@@H](n4cnc5c(N)ncnc54)[C@H](O)[C@@H]3O)[C@@H](O)[C@H]2O)C=CC1. The data set can be described thus: purified protein, by the assay type. The note with it: other: 500 μM pyruvate, increasing NADH.
Another data set has as its system T3, CC(=O)C(=O)O.
T3 construct: purchased R&D Systems
The data set can be described thus: Determination of substrate Km for LDHB (assay optimisation). In kind it is biochemical, human. The conditions noted are these: other: 500 µM NADH, increasing pyruvate. As for the experimental part:
Next, we optimised the assay conditions of RF-MS. Titration of human LDHB was examined at concentrations ranging from 0.0625 to 1 nM. […] We used 0.25 nM LDHB throughout assay development and screening to ensure enzyme activation. […] The Km values obtained from the two assays were consistent with the reported values for LDHB[15],[16].
as §3
Data were fitted to the Michaelis–Menten equations to obtain the kinetic constant Km using GraphPad Prism. Data are shown as mean ± standard deviation (n = 4).

The mark [5] stands for this setting: read-out: EC50 (μM), LDHB inhibitory activity of AXKO-0046 derivatives.

T1 sequence (P07195 whole entry): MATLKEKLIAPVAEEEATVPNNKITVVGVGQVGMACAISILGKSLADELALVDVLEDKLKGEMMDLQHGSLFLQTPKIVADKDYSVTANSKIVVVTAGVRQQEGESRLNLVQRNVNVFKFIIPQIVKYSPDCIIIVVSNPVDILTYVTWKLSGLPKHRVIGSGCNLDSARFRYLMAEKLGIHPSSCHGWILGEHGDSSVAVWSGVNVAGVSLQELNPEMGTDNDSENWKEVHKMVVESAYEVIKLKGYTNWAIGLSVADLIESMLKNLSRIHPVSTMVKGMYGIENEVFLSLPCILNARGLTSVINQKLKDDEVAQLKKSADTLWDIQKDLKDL

Consider `c1ccc(CNCCc2c(CNC3CCCCCC3)[nH]c3ccccc23)cc1` [AXKO-0046, N-({3-[2-(benzylamino)ethyl]-1H-indol-2-yl}methyl) cycloheptanamine], for which, on LDHB [1] (four-parameter fit, read-out: EC50 for LDHB), the EC50 is 0.042 µM. Moreover, on LDHB [2], the “inhibition potential with pre-incubation time” value is “did not increase with pre-incubation time”. In addition, the “mode of inhibition with respect to NADH and pyruvate” value on LDHB [3] is reported as “uncompetitive with both substrates”. The “Vmax (NADH)” value on LDHB [3] (AXKO-0046 0.00001 µM, 100 μM pyruvate) worked out at 10.1 µM/min; on LDHB [3] (AXKO-0046 0.0001 µM, 100 μM pyruvate), 10.7 µM/min; on LDHB [3] (AXKO-0046 0.001 µM, 100 μM pyruvate), 9.7 µM/min; on LDHB [3] (AXKO-0046 0.01 µM, 100 μM pyruvate), 8.3 µM/min; at LDHB [3] (AXKO-0046 0.1 µM, 100 μM pyruvate) it was 6.0 µM/min; on LDHB [3] (AXKO-0046 1 µM, 100 μM pyruvate) it was 2.9 µM/min. Moreover, the “Vmax (NADH)” value worked out at 2.1 µM/min at LDHB [3] (AXKO-0046 10 µM, 100 μM pyruvate) and 2.2 µM/min on LDHB [3] (AXKO-0046 100 µM, 100 μM pyruvate). In addition, the “Vmax (Pyruvate)” value at LDHB [3] (AXKO-0046 0.00001 µM, 100 μM NADH) was 7.3 µM/min; at LDHB [3] (AXKO-0046 0.0001 µM, 100 μM NADH), 6.9 µM/min; at LDHB [3] (AXKO-0046 0.001 µM, 100 μM NADH) it was 6.5 µM/min; at LDHB [3] (AXKO-0046 0.01 µM, 100 μM NADH), 6.6 µM/min; on LDHB [3] (AXKO-0046 0.1 µM, 100 μM NADH), 4.3 µM/min; on LDHB [3] (AXKO-0046 1 µM, 100 μM NADH), 2.0 µM/min. For the same compound, the “Vmax (Pyruvate)” value at LDHB [3] (AXKO-0046 10 µM, 100 μM NADH) came out at 1.6 µM/min; at LDHB [3] (AXKO-0046 100 µM, 100 μM NADH), 1.6 µM/min. Besides, the IC50 was determined as 702 nM at LDHB [3] (NADH 30 μM, 100 μM pyruvate); 330 nM at LDHB [3] (NADH 50 μM, 100 μM pyruvate); 223 nM at LDHB [3] (NADH 100 μM, 100 μM pyruvate); 94.2 nM at LDHB [3] (NADH 200 μM, 100 μM pyruvate); 197 nM on LDHB [3] (Pyruvate 30 μM, 100 μM NADH); 114 nM on LDHB [3] (Pyruvate 50 μM, 100 μM NADH). Also, the IC50 at LDHB [3] (Pyruvate 200 μM, 100 μM NADH) is 96.3 nM. In “Cellular activity”, the cellular activity entry is recorded as “no potent cellular activity”. Moreover, the “inhibition of LDHA (concentration response curve)” value on human LDHA is given as “did not inhibit LDHA”.

Consider `CN(CCc1c(CN(C)C2CCCCCC2)[nH]c2ccccc12)Cc1ccccc1` [AXKO-0058], for which the EC50 on LDHB [1] (setting [5]) is 8.3 µM.

Regarding `CN(CCc1c(CNC2CCCCCC2)[nH]c2ccccc12)Cc1ccccc1` [AXKO-0060], the EC50 at LDHB [1] (setting [5]) is 0.25 µM.

`Cn1c(CNC2CCCCCC2)c(CCNCc2ccccc2)c2ccccc21` [AXKO-0067]: at LDHB [1] (setting [5]), the EC50 is more than 100 µM.

With `CN(Cc1[nH]c2ccccc2c1CCNCc1ccccc1)C1CCCCCC1` [AXKO-0077], at LDHB [1] (setting [5]), the EC50 amounted to 7.4 µM.

Regarding human LDHB (Homo sapiens), the values for the Km (in data set [4]; in the data set on CC(=O)C(=O)O) were 64 µM and 116 µM, respectively.
